Data published in US8030354B2, “Substituted biphenyl GPR40 modulators” (Amgen Inc., priority 2007, dated 2011).

Tests used:
[1] = target: T1, GPR40 (Homo sapiens, UniProt O14842); assay: Cell-based aequorin assay (CHO cells stably expressing GPR40 and aequorin); set-up: expressed in transfected cells; host or cells: CHO cells stably transfected with GPR40 and aequorin; settings: for EC50: activation of human GPR40, CHO cells, 0.01% HSA; for agonist type in aequorin assay: compared with α-linolenic acid and docosahexaenoic acid, FIG. 2
T1 sequence (O14842 whole entry): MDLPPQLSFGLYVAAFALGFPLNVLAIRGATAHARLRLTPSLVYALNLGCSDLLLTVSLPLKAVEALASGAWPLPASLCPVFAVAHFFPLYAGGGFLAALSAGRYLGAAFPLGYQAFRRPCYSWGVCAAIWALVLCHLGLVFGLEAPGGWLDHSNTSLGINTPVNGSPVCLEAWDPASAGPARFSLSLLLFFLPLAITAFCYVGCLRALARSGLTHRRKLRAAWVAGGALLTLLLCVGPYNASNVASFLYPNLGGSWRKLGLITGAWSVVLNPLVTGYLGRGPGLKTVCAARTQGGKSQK
Summary of the method: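 CHO cells stably co-expressing GPR40 and aequorin, loaded with coelenterazine (1 ug/mL, 2 h, room temperature) in H/HBSS with 20 mM Hepes and 0.01% fatty acid-free HSA. Serially diluted compounds added; luminescence recorded over 20 s. EC50 from dose-response of maximum relative light units.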

[2] = target: T1, GPR40; assay: Inositol phosphate accumulation assay (A9_GPR40 cells); assay type: cell-based; set-up: expressed in transfected cells; host or cells: CHO cells stably transfected with GPR40 and aequorin; settings: for EC50: inositol phosphate assay, A9_GPR40 cells, 1 hour, read-out: IP3 EC50; for agonist type in inositol phosphate accumulation assay: [3H] inositol accumulation after 1 hour, FIG. 3
Summary of the method: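 A9 cells stably expressing GPR40 were labelled 16 h with 1 μCi/mL ^3H-inositol in inositol-free DMEM with dialysed FBS. Compounds in HBSS/10 mM LiCl with HSA were applied for 1 h at 37° C, then quenched with 20 mM formic acid. Accumulated [^3H] inositol phosphates were counted by SPA.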

[3] = target: T1, GPR40; assay: Aequorin luminescence in response to compounds; assay type: cell-based; set-up: expressed in transfected cells; settings: FIG. 2; as a function of concentration; compared with fatty acid ligands
Description: FIG. 2 is a graph showing Aequorin luminescence in response to various compounds as a function of concentration.

[4] = tested on: fetal rat intestinal cells isolated from E19 rat embryos; assay: GLP-1 secretion into culture medium from fetal rat intestinal cells; assay type: cell-based; settings: FIG. 5-7; cultured cells treated with serial dilutions of compound
Procedure: (§1) FIG. 5 is a graph showing the concentration of GLP-1 secreted into culture medium as a function of the amount of Example compounds 14 and 69.8. The GLP-1 was secreted from fetal rat intestinal cells isolated from E19 rat embryos. The cultured cells were treated with serial dilutions of the indicated compounds, and GLP-1 secreted into the culture medium was determined.
as §1, with “6” for “5”, “compound 66.6.” for “compounds 14 and 69.8.”, “compound,” for “compounds,”
as §1, with “7” for “5”, “14, 66.17, 77.3,” for “14”, “83.1.” for “69.8.”

[5] = target: T1, GPR40; assay: Competition binding assay on A9 membranes expressing GPR40 with [3H] labeled Comparative Compound 1; set-up: expressed in transfected cells; host or cells: membranes of A9 cells expressing GPR40; settings: 5 nM radioligand, 4 hours, room temperature
Procedure: Competition binding assays were performed on A9 membranes expressing GPR40.

[6] = target: T1, GPR40; assay: Inositol phosphate accumulation in response to compounds; assay type: cell-based; set-up: expressed in transfected cells; settings: FIG. 3; as a function of concentration; compared with Comparative Compound 1
Description: FIG. 3 is a graph showing inositol phosphate accumulation in response to various compounds as a function of concentration.

[7] = target: T1, GPR40; assay: Displacement of 3H-labeled Comparative Compound 1 by unlabeled compounds; assay type: binding; set-up: expressed in transfected cells; host or cells: membranes of A9 cells expressing GPR40; settings: FIG. 1

Compound	EC50 [1] [nM]	EC50 [2] [nM]	agonist type in aequorin assay [1]	Aequorin luminescence [3]	concentration of GLP-1 secreted into culture medium [4]	displacement of bound [3H] labeled Comparative Compound 1 [5]	effect on binding of the radioligand (Comparative Compound 1) to the receptor [5]	inositol phosphate accumulation [6]	displacement of 3H-labeled Comparative Compound 1 / total binding of 3H-labeled Comparative Compound 1 [7]	agonist type in inositol phosphate accumulation assay [2]
COc1ccc(F)c(-c2ccc(COc3cccc([C@@H](CC(=O)O)C4CC4)c3)cc2C2CCCC2(C)C)c1 (single isomer, unassigned) [Example 66.4, (3S)-3-Cyclopropyl-3-(3-(((2-(2,2-dimethylcyclopentyl)-2′-fluoro-5′-(methyloxy)-1,1′-biphenyl-4-yl)methyl)oxy)phenyl)propanoic acid or (3R)-3-cyclopropyl-3-(3-(((2-(2,2-dimethylcyclopentyl)-2′-fluoro-5′-(methyloxy)-1,1′-biphenyl-4-yl)methyl)oxy)phenyl)propanoic acid]	100 to 1000	< 10	potent full agonists	equivalent to naturally occurring fatty acid ligands						
COc1ccc(F)c(-c2ccc(COc3cccc([C@@H](CC(=O)O)CC4CC4)c3)cc2[C@H]2CCCC2(C)C)c1 (single isomer, unassigned) [Example 69.8]	10 to 100	< 10			significantly stimulated GLP-1 secretion					
CCCCOc1cc(COc2cccc([C@@H](CC(=O)O)C3CC3)c2)ccc1-c1cc(OC)ccc1F (single isomer, unassigned) [Example 9, (3S)-3-(3-(((2-(Butyloxy)-2′-fluoro-5′-(methyloxy)-1,1′-biphenyl-4-yl)methyl)oxy)phenyl)-3-cyclopropylpropanoic acid or (3R)-3-(3-(((2-(butyloxy)-2′-fluoro-5′-(methyloxy)-1,1′-biphenyl-4-yl)methyl)oxy)phenyl)-3-cyclopropylpropanoic acid]	100 to 1000	100 to 1000				did not displace	enhanced the binding of the radioligand	greater than Comparative Compound 1	enhanced the total binding	potent full agonists
COc1ccc(F)c(-c2ccc(COc3cccc([C@@H](CC(=O)O)C4CC4)c3)cc2C2=CCCC2(C)C)c1 (single isomer, unassigned) [Example 14, (3S)-3-Cyclopropyl-3-(3-(((2-(5,5-dimethyl-1-cyclopenten-1-yl)-2′-fluoro-5′-(methyloxy)-1,1′-biphenyl-4-yl)methyl)oxy)phenyl)propanoic acid or (3R)-3-cyclopropyl-3-(3-(((2-(5,5-dimethyl-1-cyclopenten-1-yl)-2′-fluoro-5′-(methyloxy)-1,1′-biphenyl-4-yl)methyl)oxy)phenyl)propanoic acid]	100 to 1000	10 to 100	potent full agonists	equivalent to naturally occurring fatty acid ligands	significantly stimulated GLP-1 secretion	did not displace	enhanced the binding of the radioligand	greater than Comparative Compound 1	enhanced the total binding	potent full agonists
COc1ccc(F)c(-c2ccc(COc3cccc(CCC(=O)O)c3)cc2OC(F)(F)F)c1 [Example 38, 3-[3-(2′-Fluoro-5′-methoxy-2-trifluoromethoxy-biphenyl-4-ylmethoxy)-phenyl]-propionic acid]	100 to 1000	1000 to 10000								
CCC(CC(=O)O)c1cccc(OCc2ccc(-c3cc(OC)ccc3F)c(C3=CCCC3(C)C)c2)c1 (single isomer, unassigned) [Example 65.1, (3R)-3-(3-(((2-(5,5-Dimethyl-1-cyclopenten-1-yl)-2′-fluoro-5′-(methyloxy)-1,1′-biphenyl-4-yl)methyl)oxy)phenyl)pentanoic acid or (3S)-3-(3-(((2-(5,5-dimethyl-1-cyclopenten-1-yl)-2′-fluoro-5′-(methyloxy)-1,1′-biphenyl-4-yl)methyl)oxy)phenyl)pentanoic acid]	100 to 1000	10 to 100								

The next lines start with results.

EC50 [1] [nM]	EC50 [2] [nM]	Compound	agonist type in aequorin assay [1]	Aequorin luminescence [3]	concentration of GLP-1 secreted into culture medium [4]	displacement of bound [3H] labeled Comparative Compound 1 [5]	effect on binding of the radioligand (Comparative Compound 1) to the receptor [5]	inositol phosphate accumulation [6]	displacement of 3H-labeled Comparative Compound 1 / total binding of 3H-labeled Comparative Compound 1 [7]	agonist type in inositol phosphate accumulation assay [2]
10 to 100	< 10	COc1ccc(F)c(-c2ccc(COc3cccc(C(CC(=O)O)C4CC4)c3F)cc2C2CCCC2(C)C)c1 (single isomer, unassigned) [Example 83.1]			significantly stimulated GLP-1 secretion					
100 to 1000	< 10	CCC(CC(=O)O)c1cccc(OCc2ccc(-c3cc(OC)ccc3F)c(C3CCCC3(C)C)c2)c1F (single isomer, unassigned) [Example 77.3]			significantly stimulated GLP-1 secretion					
10 to 100	< 10	COc1ccc(F)c(-c2ccc(COc3cccc(C(CC(=O)O)C4CC4)c3)cc2C2CCCC2(C)C)c1 (single isomer, unassigned) [Example 66.6]			significantly stimulated GLP-1 secretion					
10 to 100	< 10	COc1ccc(F)c(-c2ccc(COc3cccc([C@@H](CC(=O)O)C4CC4)c3)cc2CC(C)(C)C)c1 (single isomer, unassigned) [Example 66.17, (3S)-3-Cyclopropyl-3-(3-(((2-(2,2-dimethylpropyl)-2′-fluoro-5′-(methyloxy)-1,1′-biphenyl-4-yl)methyl)oxy)phenyl)propanoic acid or (3R)-3-cyclopropyl-3-(3-(((2-(2,2-dimethylpropyl)-2′-fluoro-5′-(methyloxy)-1,1′-biphenyl-4-yl)methyl)oxy)phenyl)propanoic acid]			significantly stimulated GLP-1 secretion					
100 to 1000	< 10	CCC(CC(=O)O)c1cccc(OCc2ccc(-c3cc(OC)ccc3F)c(C3CCCCC3(C)C)c2)c1F (single isomer, unassigned) [Example 77.8]								
100 to 1000	10 to 100	CCCC(CC(=O)O)c1cccc(OCc2ccc(-c3cc(OC)ccc3F)c(C3CCCCC3)c2)c1 (single isomer, unassigned) [Example 67.8, (3R)-3-(3-(((2-Cyclohexyl-2′-fluoro-5′-(methyloxy)-1,1′-biphenyl-4-yl)methyl)oxy)phenyl)hexanoic acid or (3S)-3-(3-(((2-cyclohexyl-2′-fluoro-5′-(methyloxy)-1,1′-biphenyl-4-yl)methyl)oxy)phenyl)hexanoic acid]								
